From paper PMC7545175 (Scientific Reports, 2020) come the findings set out here.

Data set [1] relates to MCF10A, a nonmalignant mammary epithelial cell line. Briefly: Cell viability assay (PrestoBlue, 72 h), MCF10A. The conditions noted are these: for MCF-10A Inhibition rate / Survival rate at 10 uM MCF10A: human, 72 h, 10 µM. The class given is cell-based. The method, then: (§1) The cells were seeded in 384-well clear plates with a density of 8 × 10^2 cells/well for MCF-10A and BT-549 cell lines, 1 × 10^3 cells/well for MDA-MB-453, and 2 × 10^3 cells/well for MDA-MB-231 overnight. Then cells were treated with the indicated concentrations of test compounds for 72 h. At the end of incubation, 5 μL of PrestoBlue Cell Viability Reagent (Invitrogen, Carlsbad, CA, USA) was added to each well with 50 μL medium. The plates were incubated for an additional 1.5 h at 37 °C in a humidified 5% CO2 atmosphere; the relative fluorescence unit (RFU) in the reaction mixture will then be recorded (Ex560/Em590) by Victor^2-Vplate reader (PerkinElmer, Waltham, MA, USA). The cell lines were chosen based on the mutation status of PTEN and/or TP53: MCF-10A, the nonmalignant mammary epithelial cell line; BT-549 with mutation of PTEN and TP53; MDA-MB-453 with mutation of PTEN; MDA-MB-231 with mutation of TP53[47].

Data set [2] has as its system MDA-MB-231. Briefly: Cell viability assay (PrestoBlue, 72 h), MDA-MB-231. The class given is cell-based, human. The conditions noted are these: for IC50 / viability at 10 µM: Homo sapiens; for IC50: MDA-MB-231; for viability at 10 µM: MDA-MB-231, 72 h, mean of at least two determinations, within ± 15%, read-out: Survival rate at 10 uM MDA-MB-231; for Activity toward TNBC cell lines (in words): TNBC cell lines MDA-MB-231, BT-549, MDA-MB-453. Here is the method:
as §1

Data set [3] deals with BT-549. Briefly: Cell viability assay (PrestoBlue, 72 h), BT-549. It is filed as cell-based. To be noted: Homo sapiens; for IC50: BT-549; for viability at 10 µM: BT-549, 72 h, mean of at least two determinations, within ± 15%, read-out: Survival rate at 10 uM BT-549. Here is the method: as §1
Data set [4] deals with MDA-MB-453. Description: Cell viability assay (PrestoBlue, 72 h), MDA-MB-453. The class given is cell-based. The conditions noted are these: Homo sapiens; for IC50: MDA-MB-453; for viability at 10 µM: MDA-MB-453, 72 h, mean of at least two determinations, within ± 15%, read-out: Survival rate at 10 uM MDA-MB-453. Here is the method:
as §1

Data set [5] concerns the target mu-opioid receptor (MOR) (Homo sapiens, UniProt P35372). Briefly: FLIPR calcium assay in CHO-K1/MOR/Gα15 cells.
[6] abbreviates: Figure 4B, read-out: MDA-MB-231 IC50.
Setting [7] is: Figure 4B, read-out: BT-549 IC50.
[8] abbreviates: Figure 4B, read-out: MDA-MB-453 IC50.
[9] abbreviates: Figure 3C, unit inferred, read-out: IC50 values MDA-MB-231.
Where [10] appears, read: Figure 3C, unit inferred, read-out: IC50 values BT-549.
Where [11] appears, read: Figure 3C, unit inferred, read-out: IC50 values MDA-MB-453.

The structures appear in SMILES notation. Like-named read-outs stand apart in the source and are kept apart here.

Sequence of mu-opioid receptor (MOR) (P35372 whole entry): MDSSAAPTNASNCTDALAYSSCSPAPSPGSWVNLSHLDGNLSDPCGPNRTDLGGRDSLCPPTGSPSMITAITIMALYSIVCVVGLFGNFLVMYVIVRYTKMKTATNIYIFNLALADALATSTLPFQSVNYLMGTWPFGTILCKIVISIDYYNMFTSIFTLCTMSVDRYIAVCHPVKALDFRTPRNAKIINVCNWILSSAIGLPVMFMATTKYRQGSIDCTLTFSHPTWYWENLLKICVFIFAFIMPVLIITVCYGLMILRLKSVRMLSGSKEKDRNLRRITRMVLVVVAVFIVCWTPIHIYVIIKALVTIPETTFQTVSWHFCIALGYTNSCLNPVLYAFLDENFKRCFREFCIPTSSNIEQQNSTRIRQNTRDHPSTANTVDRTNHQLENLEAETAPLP

In general, IC50 refers to the concentration at which inhibition is half-maximal. In the case of `COC(=O)c1ccc(C(=O)Nc2nc(-c3ccc(C)cc3C)cs2)cc1` [Compound 18], the “MCF-10A Inhibition rate” value in data set [1] was found to be 4%. The “Selectivity over nonmalignant mammary epithelial cell (in words)” value in data set [1] (versus MDA-MB-231) is “good selectivity”. Further, the IC50 in data set [2] (setting [6]) was 0.62 µM; in data set [3] (setting [7]), over 10 µM; in data set [4] (setting [8]), over 10 µM.

`CCN(CC)S(=O)(=O)c1ccc(C(=O)Nc2nc(-c3ccc(Cl)c(Cl)c3)cs2)cc1` [Compound 7]: the “Cytotoxicity to MCF10A (in words)” value in data set [1] is reported as “low cytotoxicity”. In addition, the “Survival rate at 10 uM MCF10A” value in data set [1] worked out at 117%. Moreover, the viability at 10 µM in data set [2] worked out at 6%; in data set [3], 54%; in data set [4] it was 29%. In addition, the 50% inhibitory concentration (IC50) in data set [2] (setting [9]) is 2.52 µM; in data set [3] (setting [10]), over 20 µM; in data set [4] (setting [11]) it was over 20 µM. Also, in data set [2], the “Activity toward TNBC cell lines (in words)” value is recorded as “broader TNBC inhibitions”.

For `Cn1ncc(Cl)c1C(=O)Nc1ccc2nc(NC(=O)C3CCCCC3)sc2c1` [Compound 6], the “Cytotoxicity to MCF10A (in words)” value in data set [1] is “low cytotoxicity”. Besides, in data set [1], the “Survival rate at 10 uM MCF10A” value is 6%. For the same molecule, the viability at 10 µM stood at 33% in data set [2], 22% in data set [3] and 19% in data set [4].

The term EC50 denotes the concentration at which the effect is half-maximal. As for `Cc1cc(N2CCN(C)CC2)nc(N2CCN(C(=O)c3ccc(C)c(C)c3)CC2)n1` [Compound 28], the EC50 in data set [5] turned out to be 8.05 µM.

Regarding `Cc1ccc(-c2csc(NC(=O)c3cc(C)on3)n2)c(C)c1` [Compound 20], the “MCF-10A Inhibition rate” value in data set [1] is 14%. The IC50 in data set [2] (setting [6]), in data set [3] (setting [7]) and in data set [4] (setting [8]) was over 10 µM each time.

For `CCN(C(=O)c1sc(NC(=O)CCl)c(C#N)c1C)C1CCCCC1` [Compound 5], the “Cytotoxicity to MCF10A (in words)” value in data set [1] was “low cytotoxicity”. The “Survival rate at 10 uM MCF10A” value in data set [1] is listed as 16%. Moreover, the viability at 10 µM in data set [2] was -12%; in data set [3] it was 10%; in data set [4], -16%.

As for `COc1ccc(C(=O)Nc2nc(-c3ccc(C)cc3C)cs2)cc1` [Compound 16], the “MCF-10A Inhibition rate” value in data set [1] stood at 8%. The IC50 in data set [2] (setting [6]) was 1.4 µM; in data set [3] (setting [7]), over 10 µM; in data set [4] (setting [8]) it was 6.3 µM.

As for `O=C(Nc1ncc(-c2ccncc2)s1)c1ccc(F)cc1` [Compound 22], the “MCF-10A Inhibition rate” value in data set [1] is recorded as -5%. For the same molecule, the IC50 in data set [2] (setting [6]), in data set [3] (setting [7]) and in data set [4] (setting [8]) was over 10 µM throughout. In data set [2], the “Activity toward TNBC cell lines (in words)” value is recorded as “did not show activities”.

On to `O=C(Nc1ccc(S(=O)(=O)NC2CCCCC2)cc1)C1CCCCC1` [Compound 26], for which, in data set [5], the EC50 came out at 0.56 µM.

For the molecule `Cc1cccc(C(=O)Nc2nc(-c3cc(C)ccc3C)cs2)c1` [Compound 9], in data set [1], the “Cytotoxicity to MCF10A (in words)” value was “low cytotoxicity”. In addition, the “Survival rate at 10 uM MCF10A” value in data set [1] turned out to be 105%. Besides, the viability at 10 µM worked out at 51% in data set [2], 79% in data set [3] and 54% in data set [4].

In the case of `O=C(N/N=C/c1ccccc1Cl)c1[nH]c2ccc(Cl)cc2c1-c1ccccc1` [Compound 1], the “Cytotoxicity to MCF10A (in words)” value in data set [1] is listed as “low cytotoxicity”. In addition, in data set [1], the “Survival rate at 10 uM MCF10A” value is -7%. In addition, the figures for the viability at 10 µM in data set [2], in data set [3] and in data set [4] were 36%, 12% and 17%, respectively.

Regarding `O=C(c1ccc(Oc2ccc([N+](=O)[O-])cc2)cc1)c1ccc(Oc2ccc([N+](=O)[O-])cc2)cc1` [Compound 8], the viability at 10 µM in data set [2] worked out at 22%; in data set [3] it was 88%; in data set [4], 47%. Moreover, the IC50 was 10.7 µM in data set [2] (setting [9]), over 20 µM in data set [3] (setting [10]) and over 20 µM in data set [4] (setting [11]). Moreover, the “Activity toward TNBC cell lines (in words)” value in data set [2] is given as “broader TNBC inhibitions”.

With `Cc1cc(C)c(C)c(-c2csc(NC(=O)c3cc([N+](=O)[O-])cc([N+](=O)[O-])c3)n2)c1C` [Compound 10], the viability at 10 µM in data set [2] turned out to be 21%; in data set [3], 52%; in data set [4] it was 25%. Moreover, the values for the IC50 in data set [2] (setting [9]), in data set [3] (setting [10]) and in data set [4] (setting [11]) were 8.4 µM, 7.68 µM and over 20 µM, respectively. The “Activity toward TNBC cell lines (in words)” value in data set [2] is recorded as “broader TNBC inhibitions”.

In the case of `COc1ccc(C(=O)Nc2ncc(-c3ccncc3)s2)cc1` [Compound 23], the “Cytotoxicity to MCF10A (in words)” value in data set [1] is reported as “exhibited cytotoxicity”. For the same molecule, in data set [1], the “MCF-10A Inhibition rate” value was 35%. Besides, the IC50 in data set [2] (setting [6]) stood at 3.98 µM; in data set [3] (setting [7]), 2.6 µM; in data set [4] (setting [8]), 7.93 µM. Moreover, the “Activity toward TNBC cell lines (in words)” value in data set [2] is “moderate micro molar activities”.

For `Nc1c(C(=O)c2ccccc2)sc2nc3c(cc12)CCCC3` [Compound 2], in data set [1], the “Cytotoxicity to MCF10A (in words)” value is reported as “low cytotoxicity”. Moreover, the “Survival rate at 10 uM MCF10A” value in data set [1] was -5%. Further, the viability at 10 µM in data set [2] was determined as 34%; in data set [3], 16%; in data set [4], 15%.

For `Cc1ccc(C(=O)Nc2cnc3ccccc3c2)cc1C` [Compound 27], in data set [5], the EC50 amounted to 4.32 µM.

As for `Cc1ccc(-c2csc(NC(=O)c3ccc(F)cc3)n2)c(C)c1` [Compound 15], the “MCF-10A Inhibition rate” value in data set [1] is given as -8%. For the same molecule, the IC50 was 1.89 µM in data set [2] (setting [6]), over 10 µM in data set [3] (setting [7]) and 9.28 µM in data set [4] (setting [8]).

With `Cc1ccc(-c2csc(NC(=O)c3ccsc3)n2)c(C)c1` [Compound 19], the “MCF-10A Inhibition rate” value in data set [1] came out at 14%. Also, the results for the concentration for half-maximal inhibition (IC50) in data set [2] (setting [6]), in data set [3] (setting [7]) and in data set [4] (setting [8]) were 2.68 µM, over 10 µM and over 10 µM, respectively.

As to `Cc1ccc2c(Cl)c(C(=O)NCC(c3ccccc3Cl)N(C)C)sc2c1` (stereo not shown) [Compound 25], the EC50 in data set [5] worked out at 6.12 µM.

As to `Cc1cc(C)c(-c2csc(NC(=O)c3ccc(Br)cc3)n2)c(C)c1` [Compound 3], the “Cytotoxicity to MCF10A (in words)” value in data set [1] was “low cytotoxicity”. In data set [1], the “Survival rate at 10 uM MCF10A” value came to 44%. In addition, the viability at 10 µM is -14% in data set [2], 101% in data set [3] and 21% in data set [4]. In addition, the half-maximal inhibitory concentration (IC50) in data set [2] (setting [9]) is 1.49 µM; in data set [3] (setting [10]), over 20 µM; in data set [4] (setting [11]), 5.19 µM. In addition, the “Activity toward TNBC cell lines (in words)” value in data set [2] is “broader TNBC inhibitions”.

On to `Cc1ccc(-c2csc(NC(=O)c3ccc(F)cc3)n2)c(C)c1` [Compound 4], for which the “Cytotoxicity to MCF10A (in words)” value in data set [1] is reported as “low cytotoxicity”. Besides, the “Survival rate at 10 uM MCF10A” value in data set [1] is on record as 101%. In addition, the viability at 10 µM in data set [2] stood at 35%; in data set [3], 106%; in data set [4], 53%.

As for `COC(=O)Nc1nc2ccc(C(=O)c3ccccc3)cc2[nH]1` [Compound 12], the “Cytotoxicity to MCF10A (in words)” value in data set [1] is given as “low cytotoxicity”. In addition, in data set [1], the “Survival rate at 10 uM MCF10A” value amounted to 13%. Moreover, the viability at 10 µM in data set [2] is 35%; in data set [3], 17%; in data set [4], 22%.

For `CN(CCNC(=O)c1ccc(C(=O)NCCN(C)Cc2ccccc2)cc1)Cc1ccccc1` [Compound 24], in data set [5], the EC50 stood at 5.71 µM.

As for `O=C(N/N=C/c1ccc(Br)cc1)c1cc2ccccc2[nH]1` [Compound 11], the “Cytotoxicity to MCF10A (in words)” value in data set [1] is on record as “low cytotoxicity”. In addition, the “Survival rate at 10 uM MCF10A” value in data set [1] is given as 18%. Further, the results for the viability at 10 µM in data set [2], in data set [3] and in data set [4] were 56%, 26% and 29%, respectively.
